According to PubChem BioAssay AID268 (DTP/NCI, 2004):
Where “and” joins values, the source holds several entries; their conditions need not be identical. Identical values can stand only once.

System: CD2F1 mice, P1798 lymphosarcoma sc, tumor weight T/C
Assay: NCI In Vivo Anticancer Drug Screen. Data for tumor model P1798 Lymphosarcoma (subcutaneous) in CD2F1 (CDF1) mice
Conditions: endpoint: mean tumor weight, higher = larger tumour
Protocol: The antitumor activity of compounds was measured in mice bearing transplantable tumors. Survival or tumor size were measured and the results are expressed as the measurement made in the treated group (T) divided by the measurement made in the vehicle treated control group (C). The tumor model used in this assay is P1798 Lymphosarcoma (subcutaneous) in CD2F1 (CDF1) mice

[1] = dose: 5.0 mg/kg/injection, schedule: Q01DX010 (ip), vehicle: saline
[2] = dose: 10.0 mg/kg/injection, schedule: Q01DX010 (ip), vehicle: saline
[3] = dose: 20.0 mg/kg/injection, schedule: Q01DX010 (ip), vehicle: saline
[4] = dose: 40.0 mg/kg/injection, schedule: Q01DX010 (ip), vehicle: saline
[5] = dose: 0.63 mg/kg/injection, schedule: Q01DX010 (ip), vehicle: saline
[6] = dose: 1.25 mg/kg/injection, schedule: Q01DX010 (ip), vehicle: saline
[7] = dose: 2.5 mg/kg/injection, schedule: Q01DX010 (ip), vehicle: saline
[8] = dose: 6.25 mg/kg/injection, schedule: Q01DX010 (ip), vehicle: saline
[9] = dose: 12.5 mg/kg/injection, schedule: Q01DX010 (ip), vehicle: saline
[10] = dose: 25.0 mg/kg/injection, schedule: Q01DX010 (ip), vehicle: saline
[11] = dose: 25.0 mg/kg/injection, schedule: Q01DX010 (sc), vehicle: steriod suspending solution
[12] = dose: 50.0 mg/kg/injection, schedule: Q01DX010 (sc), vehicle: steriod suspending solution
[13] = dose: 100.0 mg/kg/injection, schedule: Q01DX010 (sc), vehicle: steriod suspending solution
[14] = dose: 200.0 mg/kg/injection, schedule: Q01DX010 (sc), vehicle: steriod suspending solution
[15] = dose: 400.0 mg/kg/injection, schedule: Q01DX010 (sc), vehicle: steriod suspending solution
[16] = dose: 50.0 mg/kg/injection, schedule: Q01DX010 (ip), vehicle: saline
[17] = dose: 100.0 mg/kg/injection, schedule: Q01DX010 (ip), vehicle: saline
[18] = dose: 200.0 mg/kg/injection, schedule: Q01DX010 (ip), vehicle: saline
[19] = dose: 16.0 mg/kg/injection, schedule: Q01DX010 (ip), vehicle: saline
[20] = dose: 64.0 mg/kg/injection, schedule: Q01DX010 (ip), vehicle: saline
[21] = dose: 12.5 mg/kg/injection, schedule: Q01DX010 (sc), vehicle: steriod suspending solution
[22] = dose: 0.16 mg/kg/injection, schedule: Q01DX010 (ip), vehicle: saline
[23] = dose: 0.25 mg/kg/injection, schedule: Q01DX010 (ip), vehicle: saline
[24] = dose: 0.38 mg/kg/injection, schedule: Q01DX010 (ip), vehicle: saline
[25] = dose: 0.57 mg/kg/injection, schedule: Q01DX010 (ip), vehicle: saline

C[C@@H]1C[C@@H]([C@H](O)CC2CC(=O)NC(=O)C2)C(=O)[C@@H](C)C1
T/C [1]: 80 % of control and 81 % of control | T/C [2]: 99 % of control and 103 % of control | T/C [3]: 63 % of control and 75 % of control | T/C [4]: 43 % of control and 60 % of control

O=C1C=CC2(CCC23C=CC(=O)O3)O1 (stereo unspecified)
T/C (dose: 13.0 mg/kg/injection, schedule: Q01DX011 (ip), vehicle: saline): 74 % of control | T/C (dose: 20.0 mg/kg/injection, schedule: Q01DX011 (ip), vehicle: saline): 106 % of control | T/C (dose: 45.0 mg/kg/injection, schedule: Q01DX011 (ip), vehicle: saline): 108 % of control and 86 % of control | T/C (dose: 65.0 mg/kg/injection, schedule: Q01DX011 (ip), vehicle: saline): 103 % of control | T/C (dose: 100.0 mg/kg/injection, schedule: Q01DX011 (ip), vehicle: saline): 89 % of control

Nc1nc(=S)c2[nH]cnc2[nH]1
T/C [5]: 74 % of control | T/C [6]: 51 % of control and 72 % of control | T/C [7]: 44 % of control

NC(N)=NCCCC(N)C(=O)NCCCCCCNCCCCCCNC(=O)C(N)CCCN=C(N)N (stereo unspecified)
T/C [1]: 102 % of control | T/C [2]: 105 % of control | T/C [3]: 84 % of control | T/C [4]: 116 % of control

CCCNc1ncnc2[nH]ncc12
T/C [8]: 92 % of control and 95 % of control | T/C [9]: 72 % of control | T/C [10]: 25 % of control

CC1CCC2C(C)C3C(CC4C5CC=C6CC(OC7OC(CO)C(O)C(OC8OC(CO)C(O)C(O)C8O)C7OC7OC(C)C(O)C(O)C7O)CCC6(C)C5CCC43C)N2C1 (stereo unspecified)
T/C [11]: 65 % of control | T/C [12]: 44 % of control | T/C [13]: 16 % of control | T/C [14]: 9 % of control and 26 % of control | T/C [15]: 30 % of control

CC(=O)OCC(=O)[C@@]1(O)CC[C@H]2[C@@H]3C[C@H](C)C4=CC(=O)C=C[C@]4(C)[C@H]3[C@@H](O)C[C@@]21C
T/C [12]: 5 % of control

COc1cc2c3c(c4ccc(OC)c(OC)c4c2cc1OC)CN1CCC[C@@H]1C3
T/C [6]: 100 % of control and 78 % of control | T/C [1]: 108 % of control and 87 % of control | T/C [2]: 93 % of control and 104 % of control

CC(=O)[C@H]1CC[C@H]2[C@@H]3CCC4=CC(=O)[C@H](C)C[C@]4(C)[C@@]3(F)[C@@H](O)C[C@]12C
T/C [11]: 15 % of control | T/C [12]: 5 % of control | T/C [13]: 4 % of control | T/C [14]: 6 % of control | T/C [15]: 5 % of control

CN(C)c1nc(N(C)C)nc(N(C)C)n1
T/C (dose: 18.8 mg/kg/injection, schedule: Q01DX010 (ip), vehicle: saline): 104 % of control and 87 % of control | T/C (dose: 75.0 mg/kg/injection, schedule: Q01DX010 (ip), vehicle: saline): 68 % of control and 82 % of control | T/C (dose: 150.0 mg/kg/injection, schedule: Q01DX010 (ip), vehicle: saline): 26 % of control

NC(N)=NCCCC(N)C(=O)NCCCCCCNC(=O)C(N)CCCN=C(N)N (stereo unspecified)
T/C [10]: 94 % of control | T/C [16]: 85 % of control | T/C [17]: 99 % of control | T/C [18]: 90 % of control

Nc1nc(SCc2ccccc2)c2[nH]cnc2n1
T/C [19]: 86 % of control | T/C [20]: 90 % of control

C=CCOc1ccc2c(c1)CC[C@@H]1[C@@H]2CC[C@]2(C)[C@@H](O)[C@@H](O)C[C@@H]12
T/C (dose: 6.25 mg/kg/injection, schedule: Q01DX010 (sc), vehicle: steriod suspending solution): 98 % of control and 82 % of control | T/C [21]: 77 % of control and 88 % of control

CC(=O)OC(C)(C)/C=C/C(=O)[C@](C)(O)[C@H]1[C@H](O)C[C@@]2(C)[C@@H]3CC=C4[C@@H](CC[C@H](O)C4(C)C)[C@]3(CO)C(=O)C[C@]12C
T/C [22]: 109 % of control | T/C [23]: 89 % of control | T/C [24]: 102 % of control | T/C [25]: 109 % of control

NC(CCSCc1ccc(N(CCCl)CCCl)cc1)C(=O)O (stereo unspecified)
T/C (dose: 4.5 mg/kg/injection, schedule: Q01DX010 (ip), vehicle: saline): 108 % of control | T/C (dose: 9.0 mg/kg/injection, schedule: Q01DX010 (ip), vehicle: saline): 86 % of control | T/C (dose: 18.0 mg/kg/injection, schedule: Q01DX010 (ip), vehicle: saline): 98 % of control | T/C (dose: 36.0 mg/kg/injection, schedule: Q01DX010 (ip), vehicle: saline): 93 % of control

S=P(N1CCOCC1)(N1CC1)N1CC1
T/C [2]: 50 % of control and 75 % of control | T/C [3]: 24 % of control

CCOC(=O)NP(=O)(N1CC1)N1CC1
T/C [1]: 64 % of control | T/C [2]: 55 % of control

O=C1NC2C(NC(=O)N2Cl)N1Cl (stereo unspecified)
T/C [3]: 80 % of control | T/C [4]: 90 % of control | T/C (dose: 80.0 mg/kg/injection, schedule: Q01DX010 (ip), vehicle: saline): 76 % of control

c1ccc(CNc2ncnc3[nH]ncc23)cc1
T/C [19]: 98 % of control | T/C (dose: 32.0 mg/kg/injection, schedule: Q01DX010 (ip), vehicle: saline): 83 % of control | T/C [20]: 70 % of control

CN(C)/N=N/c1nc[nH]c1C(N)=O
T/C [16]: 58 % of control | T/C [17]: 47 % of control | T/C [18]: 7 % of control | T/C (dose: 400.0 mg/kg/injection, schedule: Q01DX010 (ip), vehicle: saline): 3 % of control

O=C(NCCCC(NC(=O)OCc1ccccc1)C(=O)NCCCNCCCCNCCCNC(=O)C(CCCNC(=O)OCc1ccccc1)NC(=O)OCc1ccccc1)OCc1ccccc1 (stereo unspecified)
T/C [5]: 156 % of control | T/C [6]: 91 % of control | T/C [7]: 111 % of control

CC(=O)OC(C)(C)/C=C/C(=O)[C@](C)(O)[C@H]1[C@H](O)C[C@@]2(C)[C@@H]3CC=C4[C@@H](C[C@H](O)C(=O)C4(C)C)[C@]3(C)C(=O)C[C@]12C
T/C (dose: 0.1 mg/kg/injection, schedule: Q01DX009 (ip), vehicle: saline): 99 % of control | T/C [22]: 71 % of control | T/C (dose: 0.2 mg/kg/injection, schedule: Q01DX009 (ip), vehicle: saline): 68 % of control | T/C (dose: 0.2 mg/kg/injection, schedule: Q01DX011 (ip), vehicle: carboxymethylcellulose (CMC)): 106 % of control | T/C [23]: 70 % of control | T/C (dose: 0.3 mg/kg/injection, schedule: Q01DX011 (ip), vehicle: carboxymethylcellulose (CMC)): 56 % of control | T/C [24]: 70 % of control | T/C (dose: 0.4 mg/kg/injection, schedule: Q01DX009 (ip), vehicle: saline): 77 % of control | T/C [25]: 62 % of control | T/C (dose: 0.6 mg/kg/injection, schedule: Q01DX011 (ip), vehicle: carboxymethylcellulose (CMC)): 82 % of control | T/C (dose: 0.8 mg/kg/injection, schedule: Q01DX011 (ip), vehicle: carboxymethylcellulose (CMC)): 11 % of control

O=CN(O)CC(=O)O
T/C (dose: 62.5 mg/kg/injection, schedule: Q01DX010 (ip), vehicle: saline): 92 % of control and 67 % of control | T/C (dose: 250.0 mg/kg/injection, schedule: Q01DX010 (ip), vehicle: saline): 104 % of control and 108 % of control

NC(N)=NCCCC(N)C(=O)NCCCCCCCCCCNC(=O)C(N)CCCN=C(N)N (stereo unspecified)
T/C [8]: 103 % of control | T/C [9]: 110 % of control | T/C [10]: 78 % of control | T/C [16]: 99 % of control

COC1C(OC(=O)/C=C/C=C/C=C/C=C/C(=O)O)CCC2(CO2)C1C1(C)OC1CC=C(C)C (stereo unspecified)
T/C [10]: 56 % of control | T/C [16]: 46 % of control | T/C [17]: 28 % of control

C[C@]12CC[C@@H]3c4ccccc4CC[C@H]3[C@@H]1CC[C@@H]2O
T/C [13]: 94 % of control | T/C [14]: 74 % of control | T/C [15]: 33 % of control | T/C (dose: 800.0 mg/kg/injection, schedule: Q01DX010 (sc), vehicle: steriod suspending solution): 7 % of control

NC(Cc1ccc(N(CCCl)CCCl)cc1)C(=O)O (stereo unspecified)
T/C [7]: 51 % of control | T/C [1]: 39 % of control

CN(C)CCCN1c2ccccc2Sc2ccc(C(F)(F)F)cc21
T/C [9]: 55 % of control | T/C [10]: 19 % of control

C[C@]12C=CC(=O)C=C1CC[C@@H]1[C@@H]2CC[C@]2(C)OC(=O)CC[C@@H]12
T/C [21]: 107 % of control and 112 % of control | T/C [11]: 101 % of control and 77 % of control | T/C [13]: 111 % of control and 115 % of control

N#Cc1ccc(S(N)(=O)=O)cc1
T/C (dose: 22.0 mg/kg/injection, schedule: Q01DX010 (ip), vehicle: saline): 70 % of control | T/C (dose: 33.0 mg/kg/injection, schedule: Q01DX010 (ip), vehicle: saline): 54 % of control | T/C (dose: 49.0 mg/kg/injection, schedule: Q01DX010 (ip), vehicle: saline): 67 % of control | T/C (dose: 73.0 mg/kg/injection, schedule: Q01DX010 (ip), vehicle: saline): 35 % of control

COc1cc(-c2ccc(Nc3ccccc3C(=O)O)c(OC)c2)ccc1N
T/C [3]: 82 % of control | T/C [4]: 52 % of control
